# Experimental data from patent US10945932B2, “Prebiotic oral care compositions containing carboxylic acids” (COLGATE-PALMOLIVE COMPANY, priority 2013, dated 2021).
# Read-outs that look alike come from different tables or passages of the source.
# Tests used:
# Veillonella parvula = test: Biofilm growth assay in BHI, crystal violet; format: cell-based; settings: V parvula
# Procedure: (§1) Late exponential growth phase liquid cultures were prepared by transferring the respective bacterium from blood agar plates to BHI and overnight incubation at 37° C. in an anaerobic atmosphere for A. viscosus, V. parvula, F. nucleatum, P. gingivalis, P. intermedia, T. forsythia, A. naeslundii, and C. sputigena, and in a 5% CO2 environment for S. salivarius, S. sanguinis, S. mitis, A. actinomycetemcomitans, S. mutans, and S. gordonii. […] Additionally, for each bacterium tested, a background control, to correct for background staining, was added. This background control contained the bacterium tested and 0.03 weight % chlorhexidine, as an antiseptic. Plates were incubated as previously described. After 48 hrs the supernatant was removed from the wells of the plates. The wells were washed twice with 1×100 μL/PBS (phosphate buffered saline), fixed for 20 minutes with 96% vol. ethanol (96% vol. solution in water) and the biofilm retained at the bottom of the wells was stained with 1 weight % crystal violet (1 weight % solution in water). […] Quantification of the stained biofilm was performed by measuring the absorbance at 630 nm using a Multiskan Ascent microplate reader (Thermo Scientific).
# Fusobacterium nucleatum [1] = test: Biofilm growth assay in BHI, crystal violet; format: cell-based; settings: F nucleatum
# Procedure: as §1
# [2] = tested on: Aggregatibacter actinomycetemcomitans; test: Biofilm growth assay in BHI, crystal violet; format: cell-based; settings: A actinomycetemcomitans
# Procedure: as §1
# Streptococcus sanguinis = test: Biofilm growth assay in BHI, crystal violet; format: cell-based; settings: S sanguinis
# Procedure: as §1
# Streptococcus mitis = test: Biofilm growth assay in BHI, crystal violet; format: cell-based; settings: S mitis
# Procedure: as §1
# Porphyromonas gingivalis = test: Biofilm growth assay in BHI, crystal violet; format: cell-based; settings: P gingivalis
# Procedure: as §1
# Streptococcus mutans = test: Biofilm growth assay in BHI, crystal violet; format: cell-based; settings: S mutans
# Procedure: as §1
# [3] = tested on: beneficial oral bacteria and pathogenic oral bacteria; test: Biofilm growth, prebiotic effect over the whole panel; format: cell-based; settings: 25 μmol/ml; 48 hours; threshold value of 1.6
# Procedure: as §1
# Capnocytophaga sputigena = settings: C sputigena, BHI
# Procedure: (§2) Late exponential growth phase liquid cultures were prepared by transferring the respective bacterium from blood agar plates to BHI and overnight incubation at 37° C. in an anaerobic atmosphere for A. viscosus, V. parvula, F. nucleatum, P. gingivalis, P. intermedia, T forsythia, A. naeslundii, and C. sputigena, and in a 5% CO2 environment for S. salivarius, S. sanguinis, S. mitis, A. actinomycetemcomitans, S. mutans, S. sobrinus and S. gordonii. Overnight cultures were transferred to BHI and adjusted to a concentration of 1×10^7 CFU/ml (colony forming units per ml) by measuring the optical density at 600 nm (OD600) (BioRad SmartSpec 3000). For each strain, 200 μl of the bacterial suspension was added to a 96-well plate containing 20 μl of the respective carboxylic acids. Final concentrations of the carboxylic acids were set to 5, 10, 20 and 25 μmol/ml. […] Plates were incubated as previously described.
# (§3) For each combination of bacterium/carboxylic acid, and for each of their respective controls (i.e. the particular bacterium in the nutritionally rich medium with no carboxylic acid), the optical density was measured at 630 nm (OD630) at 0 h, 24 h and 48 h (Thermo Scientific Multiskan Ascent). Additionally, the OD630 for combinations of bacterium/carboxylic acid grown in a 5% CO2 environment were also measured every hour between 0 h and 9 h.
# (§4) The experiment was carried out on three different days (thus providing 3 biological replicas) and on each day the experiment was carried out in quadruple (thus providing 4 technical replicas) for each combination of bacterium with carboxylic acid and for each control. For each day and for each combination, the average (mean) of the values obtained (as detailed above) for the four technical replicas was calculated to provide a single value for each combination on each day.
# Prevotella intermedia = settings: P intermedia, BHI
# Procedure: as §2, §3, §4
# Streptococcus salivarius = settings: S salivarius, BHI
# Procedure: as §2, §3, §4
# Fusobacterium nucleatum [4] = settings: F nucleatum, BHI
# Procedure: as §2, §3, §4
structure (smiles),measurement,setting,value
N[C@@H](CC(=O)O)C(=O)O [L-aspartic acid],"biofilm growth, OD at 630 nm (crystal violet) at 48 hrs divided by OD of control (control = 1)",Veillonella parvula; 20 μmol/ml,1.5344
same,"biofilm growth, OD at 630 nm (crystal violet) at 48 hrs divided by OD of control (control = 1)",Veillonella parvula; 25 μmol/ml,1.6960
same,"biofilm growth, OD at 630 nm (crystal violet) at 48 hrs divided by OD of control (control = 1)",Fusobacterium nucleatum [1]; 5 μmol/ml,1.2145
same,"biofilm growth, OD at 630 nm (crystal violet) at 48 hrs divided by OD of control (control = 1)",Fusobacterium nucleatum [1]; 10 μmol/ml,0.9710
same,"biofilm growth, OD at 630 nm (crystal violet) at 48 hrs divided by OD of control (control = 1)",Fusobacterium nucleatum [1]; 20 μmol/ml,0.9621
same,"biofilm growth, OD at 630 nm (crystal violet) at 48 hrs divided by OD of control (control = 1)",Fusobacterium nucleatum [1]; 25 μmol/ml,0.8549
same,"biofilm growth, OD at 630 nm (crystal violet) at 48 hrs divided by OD of control (control = 1)",[2]; 5 μmol/ml,0.6182
same,"biofilm growth, OD at 630 nm (crystal violet) at 48 hrs divided by OD of control (control = 1)",[2]; 10 μmol/ml,0.5044
same,"biofilm growth, OD at 630 nm (crystal violet) at 48 hrs divided by OD of control (control = 1)",[2]; 20 μmol/ml,0.4857
same,"biofilm growth, OD at 630 nm (crystal violet) at 48 hrs divided by OD of control (control = 1)",[2]; 25 μmol/ml,0.5553
same,"biofilm growth, OD at 630 nm (crystal violet) at 48 hrs divided by OD of control (control = 1)",Streptococcus sanguinis; 5 μmol/ml,1.5035
same,"biofilm growth, OD at 630 nm (crystal violet) at 48 hrs divided by OD of control (control = 1)",Streptococcus sanguinis; 10 μmol/ml,1.7477
same,"biofilm growth, OD at 630 nm (crystal violet) at 48 hrs divided by OD of control (control = 1)",Streptococcus sanguinis; 20 μmol/ml,2.0414
same,"biofilm growth, OD at 630 nm (crystal violet) at 48 hrs divided by OD of control (control = 1)",Streptococcus sanguinis; 25 μmol/ml,2.0560
same,"biofilm growth, OD at 630 nm (crystal violet) at 48 hrs divided by OD of control (control = 1)",Streptococcus mitis; 5 μmol/ml,1.5188
same,"biofilm growth, OD at 630 nm (crystal violet) at 48 hrs divided by OD of control (control = 1)",Streptococcus mitis; 10 μmol/ml,1.6156
same,"biofilm growth, OD at 630 nm (crystal violet) at 48 hrs divided by OD of control (control = 1)",Streptococcus mitis; 20 μmol/ml,1.5402
same,"biofilm growth, OD at 630 nm (crystal violet) at 48 hrs divided by OD of control (control = 1)",Streptococcus mitis; 25 μmol/ml,1.7351
same,"biofilm growth, OD at 630 nm (crystal violet) at 48 hrs divided by OD of control (control = 1)",Porphyromonas gingivalis; 5 μmol/ml,0.9713
same,"biofilm growth, OD at 630 nm (crystal violet) at 48 hrs divided by OD of control (control = 1)",Porphyromonas gingivalis; 10 μmol/ml,0.9936
same,"biofilm growth, OD at 630 nm (crystal violet) at 48 hrs divided by OD of control (control = 1)",Porphyromonas gingivalis; 20 μmol/ml,1.0779
same,"biofilm growth, OD at 630 nm (crystal violet) at 48 hrs divided by OD of control (control = 1)",Porphyromonas gingivalis; 25 μmol/ml,0.9307
same,"biofilm growth, OD at 630 nm (crystal violet) at 48 hrs divided by OD of control (control = 1)",Streptococcus mutans; 5 μmol/ml,0.0000
same,"biofilm growth, OD at 630 nm (crystal violet) at 48 hrs divided by OD of control (control = 1)",Streptococcus mutans; 10 μmol/ml,0.0000
same,"biofilm growth, OD at 630 nm (crystal violet) at 48 hrs divided by OD of control (control = 1)",Streptococcus mutans; 20 μmol/ml,0.1923
same,"biofilm growth, OD at 630 nm (crystal violet) at 48 hrs divided by OD of control (control = 1)",Streptococcus mutans; 25 μmol/ml,0.0000
same,prebiotic effect (biofilm growth),[3],exhibited prebiotic effects
same,"extent of growth, maximal OD630 over 48 hr divided by maximal OD of control (control = 1)",Capnocytophaga sputigena; 5 μmol/ml,0.9521
same,"extent of growth, maximal OD630 over 48 hr divided by maximal OD of control (control = 1)",Capnocytophaga sputigena; 10 μmol/ml,0.9529
same,"extent of growth, maximal OD630 over 48 hr divided by maximal OD of control (control = 1)",Capnocytophaga sputigena; 20 μmol/ml,0.9776
same,"extent of growth, maximal OD630 over 48 hr divided by maximal OD of control (control = 1)",Capnocytophaga sputigena; 25 μmol/ml,0.9489
same,"extent of growth, maximal OD630 over 48 hr divided by maximal OD of control (control = 1)",Prevotella intermedia; 5 μmol/ml,1.0755
same,"extent of growth, maximal OD630 over 48 hr divided by maximal OD of control (control = 1)",Prevotella intermedia; 10 μmol/ml,1.1717
same,"extent of growth, maximal OD630 over 48 hr divided by maximal OD of control (control = 1)",Prevotella intermedia; 20 μmol/ml,1.1438
same,"extent of growth, maximal OD630 over 48 hr divided by maximal OD of control (control = 1)",Prevotella intermedia; 25 μmol/ml,1.1396
same,"extent of growth, maximal OD630 over 48 hr divided by maximal OD of control (control = 1)",Streptococcus salivarius; 5 μmol/ml,0.9808
same,"extent of growth, maximal OD630 over 48 hr divided by maximal OD of control (control = 1)",Streptococcus salivarius; 10 μmol/ml,0.9975
same,"extent of growth, maximal OD630 over 48 hr divided by maximal OD of control (control = 1)",Streptococcus salivarius; 20 μmol/ml,1.0719
same,"extent of growth, maximal OD630 over 48 hr divided by maximal OD of control (control = 1)",Streptococcus salivarius; 25 μmol/ml,0.9943
same,"extent of growth, maximal OD630 over 48 hr divided by maximal OD of control (control = 1)",Fusobacterium nucleatum [4]; 5 μmol/ml,0.7922
same,"extent of growth, maximal OD630 over 48 hr divided by maximal OD of control (control = 1)",Fusobacterium nucleatum [4]; 10 μmol/ml,0.7973
same,"extent of growth, maximal OD630 over 48 hr divided by maximal OD of control (control = 1)",Fusobacterium nucleatum [4]; 20 μmol/ml,0.8395
same,"extent of growth, maximal OD630 over 48 hr divided by maximal OD of control (control = 1)",Fusobacterium nucleatum [4]; 25 μmol/ml,0.8720
